According to patent US6461997B1, “Triazole sulfones having herbicidal activity” (Monsanto Technology LLC, priority 1999, dated 2002):

Key:
[1] = test system: CHEAL (common lambsquarters); assay: Pre-emergence herbicidal activity, warm season; assay type: in vivo, Chenopodium album; details: GR80 = lowest tested rate (300, 100, 30, 10 g/ha) with 80% or greater inhibition; approx. 14 days after treating; 30/21° C.
Summary of the method: (§1)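 Seeds sown in sterilised fertilised topsoil received surface-applied compound in 50:50 acetone/water, typically at 300, 100, 30 and 10 g/ha, then greenhouse-grown at 30/21° C (warm-season species) or 18/13° C (cool-season species). Percent inhibition versus untreated plants was scored at about 14 days, giving GR80; an asterisk marks activity short of 80% at the top rate.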

[2] = test system: CONAR (field bindweed); assay: Pre-emergence herbicidal activity, warm season; assay type: in vivo, Convolvulus arvensis; details: GR80 = lowest tested rate (300, 100, 30, 10 g/ha) with 80% or greater inhibition; approx. 14 days after treating; 30/21° C.
Procedure: (§2) Tables 5 to 8 summarize results of tests conducted as described below to determine the pre-emergence herbicidal activity, in the form of a GR80 value, of illustrative compounds of this invention. […] Compounds of the invention were typically applied at rates of 300, 100, 30, and 10 g/ha. Where herbicidal activity was evident but 80% inhibition was not achieved at the highest rate tested, an asterisk (*) is shown in the following tables.
(§3) The pre-emergence tests were conducted by the following procedure. Topsoil was sieved to pass through a 1.27 cm screen. Fertilizer was added to the topsoil and the mixture was then sterilized by heating. The topsoil mixture was placed in a pot and compacted to a depth of 1.0 to 1.25 cm from the top of the pot. Seeds of each of several monocotyledonous and dicotyledonous annual plant species were placed on top of the soil. Additional soil was subsequently placed over the seeds to level-fill the pot. A known amount of each test compound dissolved or suspended in an appropriate organic solvent was diluted with a 50:50 mix of acetone and water and applied to the surface of the soil. After treatment the plants were placed in a greenhouse where they received 0.64 cm of overhead irrigation. All subsequent watering consisted of a light overhead mist and/or subirrigation as needed for germination and growth. Tables 5 and 6 below relate to warm season plant species which were placed after pre-emergence treatment in a greenhouse with a 30/21° C. day/night temperature regime. Tables 7 and 8 below relates to cool season plant species placed after pre-emergence treatment in a greenhouse or growth chamber with an 18/13° C. day/night temperature regime.
(§4) Approximately 14 days after planting and treating, the plants were observed and herbicidal efficacy recorded as percent inhibition by comparison with untreated plants.
(§5) The plant species usually regarded as weeds which were utilized in the tests are identified in the tables below according to the following legend, in which “d” indicates a dicotyledonous species and “m” a monocotyledonous species. All monocotyledonous species included in the tests herein are grasses.

[3] = test system: POROL (common purslane); assay: Pre-emergence herbicidal activity, warm season; assay type: in vivo, Portulaca oleracea; details: GR80 = lowest tested rate (300, 100, 30, 10 g/ha) with 80% or greater inhibition; approx. 14 days after treating; 30/21° C.
Summary of the method: as §1

[4] = test system: ECHCG (barnyardgrass); assay: Pre-emergence herbicidal activity, warm season; assay type: in vivo, Echinochloa crus-galli; details: GR80 = lowest tested rate (300, 100, 30, 10 g/ha) with 80% or greater inhibition; approx. 14 days after treating; 30/21° C.
Summary of the method: (§6)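 Activity is expressed as the rate giving 80% inhibition, with 300, 100, 30 and 10 g/ha typically tested. An asterisk marks activity short of 80% at the top rate. Warm-season grasses were held at 30/21 °C; cool-season blackgrass and wild buckwheat at 18/13 °C; scoring at about 14 days.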

[5] = test system: PANMI (wild proso millet); assay: Pre-emergence herbicidal activity, warm season; assay type: in vivo, Panicum miliaceum; details: GR80 = lowest tested rate (300, 100, 30, 10 g/ha) with 80% or greater inhibition; approx. 14 days after treating; 30/21° C.
Summary of the method: (§7)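 Seeds were sown in sterilized, fertilized topsoil, covered, and the soil surface was sprayed with compound in 50:50 acetone/water at 300, 100, 30 and 10 g/ha. Pots were held at 30/21 °C day/night (PANMI, DIGSA) or 18/13 °C (ALOMY, POLCO). GR80 came from percent inhibition versus untreated plants at about 14 days.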

[6] = test system: SORHA (johnsongrass (seedling)); assay: Pre-emergence herbicidal activity, warm season; assay type: in vivo, Sorghum halepense; details: GR80 = lowest tested rate (300, 100, 30, 10 g/ha) with 80% or greater inhibition; approx. 14 days after treating; 30/21° C.
Summary of the method: as §6

[7] = test system: SETFA (giant foxtail); assay: Pre-emergence herbicidal activity, warm season; assay type: in vivo, Setaria faberi; details: GR80 = lowest tested rate (300, 100, 30, 10 g/ha) with 80% or greater inhibition; approx. 14 days after treating; 30/21° C.
Summary of the method: as §6

[8] = test system: PANDI (fall panicum); assay: Pre-emergence herbicidal activity, warm season; assay type: in vivo, Panicum dichotomiflorum; details: GR80 = lowest tested rate (300, 100, 30, 10 g/ha) with 80% or greater inhibition; approx. 14 days after treating; 30/21° C.
Procedure: as §2, §3, §4, §5

[9] = test system: SORVU (shattercane); assay: Pre-emergence herbicidal activity, warm season; assay type: in vivo, Sorghum vulgare; details: GR80 = lowest tested rate (300, 100, 30, 10 g/ha) with 80% or greater inhibition; approx. 14 days after treating; 30/21° C.
Summary of the method: as §6

[10] = test system: BRAPP (broadleaf signalgrass); assay: Pre-emergence herbicidal activity, warm season; assay type: in vivo, Brachiaria platyphylla; details: GR80 = lowest tested rate (300, 100, 30, 10 g/ha) with 80% or greater inhibition; approx. 14 days after treating; 30/21° C.
Summary of the method: as §6

[11] = test system: GALAP (catchweed bedstraw); assay: Pre-emergence herbicidal activity, cool season; assay type: in vivo, Galium aparine; details: lowest tested rate with 80% or greater inhibition; rates 300, 100, 30, 10 g/ha; about 14 days
Summary of the method: as §1

[12] = test system: POLCO (wild buckwheat); assay: Pre-emergence herbicidal activity, cool season; assay type: in vivo, Polygonum convolvulus; details: lowest tested rate with 80% or greater inhibition; rates 300, 100, 30, 10 g/ha; about 14 days
Summary of the method: as §7

[13] = test system: SINAR (wild mustard); assay: Pre-emergence herbicidal activity, cool season; assay type: in vivo, Sinapis arvensis; details: lowest tested rate with 80% or greater inhibition; rates 300, 100, 30, 10 g/ha; about 14 days
Summary of the method: as §1

[14] = test system: VERPE (creeping speedwell); assay: Pre-emergence herbicidal activity, cool season; assay type: in vivo, Veronica persicaria; details: lowest tested rate with 80% or greater inhibition; rates 300, 100, 30, 10 g/ha; about 14 days
Summary of the method: as §1

[15] = test system: SASKR (russian thistle); assay: Pre-emergence herbicidal activity, cool season; assay type: in vivo, Salsola kali; details: lowest tested rate with 80% or greater inhibition; rates 300, 100, 30, 10 g/ha; about 14 days
Summary of the method: as §1

[16] = test system: STEME (common chickweed); assay: Pre-emergence herbicidal activity, cool season; assay type: in vivo, Stellaria media; details: lowest tested rate with 80% or greater inhibition; rates 300, 100, 30, 10 g/ha; about 14 days
Summary of the method: as §1

[17] = test system: LAMPU (purple deadnettle); assay: Pre-emergence herbicidal activity, cool season; assay type: in vivo, Lamium purpureum; details: lowest tested rate with 80% or greater inhibition; rates 300, 100, 30, 10 g/ha; about 14 days
Summary of the method: as §1

[18] = test system: SETVI (green foxtail); assay: Pre-emergence herbicidal activity, cool season; assay type: in vivo, Setaria viridis; details: GR80 = lowest tested rate (300, 100, 30, 10 g/ha) with 80% or greater inhibition; approx. 14 days after treating; 18/13° C.
Summary of the method: as §1

[19] = test system: AVEFA (wild oat); assay: Pre-emergence herbicidal activity, cool season; assay type: in vivo, Avena fatua; details: GR80 = lowest tested rate (300, 100, 30, 10 g/ha) with 80% or greater inhibition; approx. 14 days after treating; 18/13° C.
Procedure: as §2, §3, §4, §5

[20] = test system: AGSST (creeping bentgrass); assay: Pre-emergence herbicidal activity, cool season; assay type: in vivo, Agrostis stolonifera; details: GR80 = lowest tested rate (300, 100, 30, 10 g/ha) with 80% or greater inhibition; approx. 14 days after treating; 18/13° C.
Summary of the method: as §1

[21] = test system: SOLNI (black nightshade); assay: Pre-emergence herbicidal activity, warm season; assay type: in vivo, Solanum nigrum; details: GR80 = lowest tested rate (300, 100, 30, 10 g/ha) with 80% or greater inhibition; approx. 14 days after treating; 30/21° C.
Summary of the method: as §1

[22] = test system: ALOMY (blackgrass); assay: Pre-emergence herbicidal activity, cool season; assay type: in vivo, Alopecurus myosuroides; details: GR80 = lowest tested rate (300, 100, 30, 10 g/ha) with 80% or greater inhibition; approx. 14 days after treating; 18/13° C.
Summary of the method: as §7

[23] = test system: LOLMG (annual ryegrass); assay: Pre-emergence herbicidal activity, cool season; assay type: in vivo, Lolium multiflorum; details: GR80 = lowest tested rate (300, 100, 30, 10 g/ha) with 80% or greater inhibition; approx. 14 days after treating; 18/13° C.
Summary of the method: as §1

| SMILES | Pre-emergence activity (GR80) CHEAL [1] | Pre-emergence activity (GR80) CONAR [2] | Pre-emergence activity (GR80) POROL [3] | Pre-emergence activity (GR80) ECHCG [4] | Pre-emergence activity (GR80) PANMI [5] | Pre-emergence activity (GR80) SORHA [6] | Pre-emergence activity (GR80) SETFA [7] | Pre-emergence activity (GR80) PANDI [8] | Pre-emergence activity (GR80) BRAPP [10] | Pre-emergence activity GR80, GALAP [11] | Pre-emergence activity GR80, POLCO [12] | Pre-emergence activity GR80, SINAR [13] | Pre-emergence activity GR80, VERPE [14] | Pre-emergence activity GR80, SASKR [15] | Pre-emergence activity GR80, STEME [16] | Pre-emergence activity GR80, LAMPU [17] | Pre-emergence activity (GR80) SETVI [18] | Pre-emergence activity (GR80) AGSST [20] | other results |
| --- | --- | --- | --- | --- | --- | --- | --- | --- | --- | --- | --- | --- | --- | --- | --- | --- | --- | --- | --- |
| CCSC(F)(F)S(=O)(=O)c1ncn(C(=O)N(C)C)n1 [Example 49] | 300 g/ha | 300 g/ha | 300 g/ha | 300 g/ha | 300 g/ha | 300 g/ha | 300 g/ha | 300 g/ha | 300 g/ha | 300 g/ha | [empty] | 300 g/ha | 300 g/ha | [empty] | 300 g/ha | 300 g/ha | 300 g/ha | 100 g/ha | Pre-emergence activity (GR80) SORVU [9]: 300 g/ha; Pre-emergence activity (GR80) AVEFA [19]: 300 g/ha |
| CCSC(F)(F)S(=O)(=O)c1ncn(C(=O)N2CCCC2)n1 [Example 47] | 300 g/ha | 300 g/ha | 300 g/ha | 300 g/ha | 100 g/ha | 300 g/ha | 300 g/ha | 300 g/ha | 300 g/ha | 300 g/ha | [empty] | 300 g/ha | 10 g/ha | 100 g/ha | 30 g/ha | 30 g/ha | 300 g/ha | 30 g/ha | Pre-emergence activity (GR80) SOLNI [21]: 300 g/ha; Pre-emergence activity (GR80) ALOMY [22]: 300 g/ha; Pre-emergence activity (GR80) LOLMG [23]: 300 g/ha |
